Target: T1, TGF-beta receptor type-1 (Homo sapiens, UniProt P36897)
T1 sequence (P36897 whole entry): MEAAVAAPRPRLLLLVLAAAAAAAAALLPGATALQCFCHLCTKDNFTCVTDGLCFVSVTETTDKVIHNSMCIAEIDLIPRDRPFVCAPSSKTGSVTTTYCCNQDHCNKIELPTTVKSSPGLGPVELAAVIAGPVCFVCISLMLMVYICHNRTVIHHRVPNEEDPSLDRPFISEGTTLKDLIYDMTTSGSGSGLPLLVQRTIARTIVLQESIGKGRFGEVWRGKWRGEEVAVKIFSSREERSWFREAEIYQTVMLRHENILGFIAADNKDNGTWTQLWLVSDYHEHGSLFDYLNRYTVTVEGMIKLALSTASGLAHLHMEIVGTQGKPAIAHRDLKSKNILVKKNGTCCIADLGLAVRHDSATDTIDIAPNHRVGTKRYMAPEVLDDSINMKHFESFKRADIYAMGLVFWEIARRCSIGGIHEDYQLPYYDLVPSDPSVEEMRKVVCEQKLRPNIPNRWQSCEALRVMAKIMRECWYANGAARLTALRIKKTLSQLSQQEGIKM
Assay: Enzyme Activity Inhibition: 1. Preparation of a 1× kinase buffer: 40 mM Tris (pH 7.5), 20 mM MgCl2, 0.10% BSA, 1 mM DTT.2. Compound preparation: The final detection concentration of the compound was 10 μM, which was prepared to a 100-fold concentration, i.e., 1 mM. 100 μL of the 100-fold compound was added in the second well of the 384-well plate, and 60 μL of 100% DMSO was added to the other wells. […] 50 nL of the compound was transferred to the reaction plate with echo.3. Kinase reaction: The kinase was added to a 1× kinase buffer to form a 2× enzyme solution. […] The polypeptide TGFbR1 (purchased from Signal Chem, catalog number T36-58) and ATP were added to a 1× kinase buffer to form a 2× substrate solution. The final concentration of the substrate solution was peptide TGFbR1 0.1 mg/mL, ATP 7 μM. 2.5 μL of the 2× enzyme solution was added to the 384-well reaction plate (there was already 50 nL of 100% DMSO dissolved compound), and a 1× kinase buffer was added to a negative control well. The reaction solution was incubated at room temperature for 10 minutes. 2.5 μL of 2× substrate solution was added to the 384-well reaction plate. The 384-well plate was covered and incubated at 30° C. for 1 hour. ADP-Glo reagent (purchased from Promege, catalog number v9102) was equilibrated to room temperature. 5 μL of ADP-Glo reagent was transferred to the reaction well of the 384-well plate to stop the reaction.4. Detection of reaction results: 10 μL of kinase detection reagent was transferred to each well, shaken for 1 minute, and let stand at room temperature for 30 minutes. The sample luminescence value was read at Synegy.

Row | IC50 | SMILES
1 | 328 nM | Cc1cccc(/C=C(/C(N)=O)c2ccc3ncc(C(N)=O)n3c2)n1
2 | 207 nM | CNC(=O)/C(=C/c1cccc(C)n1)c1ccc2ncc(C(N)=O)n2c1
3 | 56 nM | CCOC(=O)c1cnc2ccc(/C=C\c3cccc(OC)n3)cn12
4 | 15 nM | COc1cccc(/C=C\c2ccc3ncc(C(N)=O)n3c2)n1
5 | 8.5 nM | Cc1ccc(F)c(/C=C\c2ccc3ncc(C(N)=O)n3c2)n1
6 | 58 nM | Cc1cccc(/C=C(/C(=O)N2CCCCC2)c2ccc3ncc(C(N)=O)n3c2)n1
7 | 25 nM | Cc1cccc(/C=C\c2ccc3ncc(C#N)n3c2)n1
8 | 21 nM | Cc1cccc(/C=C\c2ccc3ncc(-c4nnn[nH]4)n3c2)n1
9 | 44 nM | Cc1cccc(/C=C\c2ccc3ncc(C(=O)NCCN4CCOCC4)n3c2)n1
10 | 4950 nM | Cc1cccc(/C=C(/C(=O)N2CCCCC2)c2ccc3ncc(C#N)n3c2)n1
11 | 7.4 nM | COC(=O)/C(=C/c1cccc(C)n1)c1ccc2ncc(C(N)=O)n2c1
12 | 372 nM | Cc1cccc(/C=C/c2ccc3ncc(C(N)=O)n3c2)n1
13 | 33 nM | Cc1csc(/C=C\c2ccc3ncc(C(N)=O)n3c2)n1

Reference: ChEMBL document CHEMBL5729324, “Aromatic heterocyclic substituted olefin compound, preparation method for same, pharmaceutical composition of same, and applications thereof” (2022)
